SMILES strings stand for the structures. Where a name gives a salt, the structure may show the parent alone.

The results in this text go back to patent publication US20100022491A1, “4-HYDROXY-2-OXO-2,3-DIHYDRO-1,3-BENZOTHIAZOL-7YL COMPOUNDS FOR MODULATION OF B2-ADRENORECEPTOR ACTIVITY” (ASTRAZENECA AB, priority 2006, published 2010).

The target in experiment [1] is T1, recombinant human α1D receptor (Homo sapiens, UniProt P25100).
T1 construct: expressed in transfected cells; host or cells: HEK293
T1 sequence (P25100 1-572): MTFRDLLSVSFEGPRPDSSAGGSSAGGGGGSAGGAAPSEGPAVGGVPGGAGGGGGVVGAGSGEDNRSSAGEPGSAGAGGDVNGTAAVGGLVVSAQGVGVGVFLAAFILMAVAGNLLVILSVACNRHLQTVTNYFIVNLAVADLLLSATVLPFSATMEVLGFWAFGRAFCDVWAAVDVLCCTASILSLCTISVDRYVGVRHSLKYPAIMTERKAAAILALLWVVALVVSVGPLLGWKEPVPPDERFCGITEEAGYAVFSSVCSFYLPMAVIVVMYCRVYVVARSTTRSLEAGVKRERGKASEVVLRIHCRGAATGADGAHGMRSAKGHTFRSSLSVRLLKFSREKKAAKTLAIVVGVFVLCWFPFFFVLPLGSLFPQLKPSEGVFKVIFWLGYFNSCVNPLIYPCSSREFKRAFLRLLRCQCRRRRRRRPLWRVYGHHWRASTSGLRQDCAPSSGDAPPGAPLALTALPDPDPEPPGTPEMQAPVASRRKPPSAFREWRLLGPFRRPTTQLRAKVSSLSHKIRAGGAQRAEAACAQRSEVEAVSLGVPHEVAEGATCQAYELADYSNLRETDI
The experiment in a line: Adrenergic α1D selectivity binding assay ([3H]-prazosin). The conditions noted are these: inhibition of [3H]-prazosin (0.3 nM) binding, HEK293 membranes; read-out: α1 bind pIC50 (converted). The gist of the method: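 HEK293 membranes with recombinant human α1D receptor incubated 2 h at room temperature with 0.3 nM [3H]-prazosin and compound in 50 mM HEPES, 1 mM EDTA, 0.1% gelatin, pH 7.4; BMY7378 (10 μM) defined non-specific binding. Filter-bound radioactivity counted; pIC50 from four-parameter logistic fit.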

A further experiment addresses T2, Adrenergic β2 (Homo sapiens, UniProt P07550).
T2 construct: Adherent H292 cells were removed from tissue culture flasks; endogenous in cells; host or cells: H292 cells
The experiment is described as follows: Adrenergic β2 mediated cAMP production in H292 cells. Type of experiment: cell-based. The conditions noted are these: for EC50: H292 cells, cAMP by AlphaScreen, 60 minutes at room temperature, rolipram 300 μM, read-out: β2 pEC50 (converted); for β2 Int Act: Intrinsic Activity as a fraction relative to the maximum activity determined for formoterol. The gist of the method: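 H292 cells pretreated 10 min with rolipram (300 μM final), then exposed to agonist 60 min at room temperature in HEPES-buffered HBSS, 1.6% DMSO final. Lysate cAMP quantified by AlphaScreen against a cAMP standard curve; four-parameter fit gives pEC50 and intrinsic activity relative to formoterol maximum.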
For orientation: Changes in cAMP serve as a functional read-out for many G protein-coupled receptors.

T2 sequence (P07550 whole entry): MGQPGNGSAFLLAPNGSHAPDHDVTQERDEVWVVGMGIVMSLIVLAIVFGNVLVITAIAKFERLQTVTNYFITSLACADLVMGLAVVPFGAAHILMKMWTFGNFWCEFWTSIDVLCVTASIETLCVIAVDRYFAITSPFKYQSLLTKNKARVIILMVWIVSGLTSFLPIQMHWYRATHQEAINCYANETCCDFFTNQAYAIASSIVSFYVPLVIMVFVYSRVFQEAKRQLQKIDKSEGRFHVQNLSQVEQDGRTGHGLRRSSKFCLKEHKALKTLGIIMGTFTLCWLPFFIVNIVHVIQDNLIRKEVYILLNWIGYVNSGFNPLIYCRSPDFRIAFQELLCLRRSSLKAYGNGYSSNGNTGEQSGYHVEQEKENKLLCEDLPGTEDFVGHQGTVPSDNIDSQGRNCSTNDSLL

Take `O=C(CCNCCc1ccc(Cl)cc1)N(CCNCCc1ccc(O)c2[nH]c(=O)sc12)C1CCOCC1` [Example 26, N^3-[2-(4-Chlorophenyl)ethyl]-N-(2-{[2-(4-hydroxy-2-oxo-2,3-dihydro-1,3-benzothiazol-7-yl)ethyl]amino}ethyl)-N-(tetrahydro-2H-pyran-4-yl)-β-alaninamide bis-trifluoroacetic acid salt]: the IC50 in experiment [1] is 501 nM. Further, on Adrenergic β2, the EC50 was 7.94 nM and the “β2 Int Act” value stood at 0.83.
`Cc1ccccc1CCNCCC(=O)N(CCNCCc1ccc(O)c2[nH]c(=O)sc12)C1CCOCC1` [Example 27, N-(2-{[2-(4-Hydroxy-2-oxo-2,3-dihydro-1,3-benzothiazol-7-yl)ethyl]amino}ethyl)-N^3-[2-(2-methylphenyl)ethyl]-N-(tetrahydro-2H-pyran-4-yl)-β-alaninamide bis-trifluoroacetic acid salt]: in experiment [1], the IC50 is 251 nM. Besides, on Adrenergic β2, the EC50 is 10 nM and the “β2 Int Act” value was found to be 0.95.
As for `O=C(CCNCCc1ccc(Cl)cc1)N(CCNCCc1ccc(O)c2[nH]c(=O)sc12)C1CCCC1` [Example 28, N^3-[2-(4-Chlorophenyl)ethyl]-N-cyclopentyl-N-(2-{[2-(4-hydroxy-2-oxo-2,3-dihydro-1,3-benzothiazol-7-yl)ethyl]amino}ethyl)-β-alaninamide bis-trifluoroacetic acid salt], the IC50 in experiment [1] was 316 nM. Also, on Adrenergic β2, the EC50 is 10 nM and the “β2 Int Act” value turned out to be 0.87.
Take `O=C(CCNCCc1ccccc1Cl)N(CCNCCc1ccc(O)c2[nH]c(=O)sc12)C1CCCC1` [Example 29, N^3-[2-(2-Chlorophenyl)ethyl]-N-cyclopentyl-N-(2-{[2-(4-hydroxy-2-oxo-2,3-dihydro-1,3-benzothiazol-7-yl)ethyl]amino}ethyl)-β-alaninamide bis-trifluoroacetic acid salt]: the IC50 in experiment [1] was 100 nM. On Adrenergic β2, the EC50 is 3.98 nM and the “β2 Int Act” value came to 0.97.
For `O=C(CCNCCc1cccc(Cl)c1)N(CCNCCc1ccc(O)c2[nH]c(=O)sc12)C1CCCC1` [Example 30, N^3-[2-(3-Chlorophenyl)ethyl]-N-cyclopentyl-N-(2-{[2-(4-hydroxy-2-oxo-2,3-dihydro-1,3-benzothiazol-7-yl)ethyl]amino}ethyl)-β-alaninamide bis-trifluoroacetic acid salt], in that order: 200 nM, 5.01 nM and 0.96.
On to `C[C@H](CNCCC(=O)N(CCNCCc1ccc(O)c2[nH]c(=O)sc12)C1CCCC1)c1ccccc1` [Example 31, N-cyclopentyl-N-(2-{[2-(4-hydroxy-2-oxo-2,3-dihydro-1,3-benzothiazol-7-yl)ethyl]amino}ethyl)-N^3-[(2S)-2-phenylpropyl]-β-alaninamide bis-trifluoroacetic acid salt], for which, in experiment [1], the IC50 was 200 nM. Moreover, on Adrenergic β2, the EC50 is 10 nM and the “β2 Int Act” value was 0.92.
With `CC(C)(CNCCC(=O)N(CCNCCc1ccc(O)c2[nH]c(=O)sc12)C1CCCC1)c1ccccc1` [Example 32, N-cyclopentyl-N-(2-{[2-(4-hydroxy-2-oxo-2,3-dihydro-1,3-benzothiazol-7-yl)ethyl]amino}ethyl)-N^3-(2-methyl-2-phenylpropyl)-β-alaninamide bis-trifluoroacetic acid salt], the IC50 in experiment [1] was 398 nM. At Adrenergic β2, the EC50 is 79.4 nM and the “β2 Int Act” value stood at 0.67.
`O=C(CCNCCc1ccc(O)cc1)N(CCNCCc1ccc(O)c2[nH]c(=O)sc12)C1CCCCC1` [Example 34, N-Cyclohexyl-N-(2-{[2-(4-hydroxy-2-oxo-2,3-dihydro-1,3-benzothiazol-7-yl)ethyl]amino}ethyl)-N^3-[2-(4-hydroxyphenyl)ethyl]-β-alaninamide bis-trifluoroacetic acid salt]: the IC50 in experiment [1] is 200 nM. Also, at Adrenergic β2, the EC50 is 2 nM and the “β2 Int Act” value is given as 0.75.
Consider `O=C(CCNCCc1cccs1)N(CCNCCc1ccc(O)c2[nH]c(=O)sc12)C1CCCCC1` [Example 35, N-Cyclohexyl-N-(2-{[2-(4-hydroxy-2-oxo-2,3-dihydro-1,3-benzothiazol-7-yl)ethyl]amino}ethyl)-N^3-[2-(2-thienyl)ethyl]-β-alaninamide bis-trifluoroacetic acid salt], for which the IC50 in experiment [1] is 158 nM. For the same compound, at Adrenergic β2, the EC50 is 3.98 nM and the “β2 Int Act” value is recorded as 0.91.
Taken in the same sequence, the figures for `O=C(CCNCCc1cccc(F)c1)N(CCNCCc1ccc(O)c2[nH]c(=O)sc12)C1CCCCCC1` [Example 36, N-Cycloheptyl-N^3-[2-(3-fluorophenyl)ethyl]-N-(2-{[2-(4-hydroxy-2-oxo-2,3-dihydro-1,3-benzothiazol-7-yl)ethyl]amino}ethyl)-β-alaninamide bis-trifluoroacetic acid salt] were 158 nM, 2.51 nM and 0.84.
For the compound `O=C(CCNCCc1cccc(O)c1)N(CCNCCc1ccc(O)c2[nH]c(=O)sc12)C1CCCCCC1` [Example 37, N-Cycloheptyl-N-(2-{[2-(4-hydroxy-2-oxo-2,3-dihydro-1,3-benzothiazol-7-yl)ethyl]amino}ethyl)-N^3-[2-(3-hydroxyphenyl)ethyl]-β-alaninamide bis-trifluoroacetic acid salt], in experiment [1], the IC50 was 200 nM. On Adrenergic β2, the EC50 was 1 nM and the “β2 Int Act” value was 0.91.
Taken in the same sequence, the figures for `CC(C)(C)CN(CCNCCc1ccc(O)c2[nH]c(=O)sc12)C(=O)CCNC(C)(C)Cc1ccccc1` [Example 38, N^3-(1,1-Dimethyl-2-phenylethyl)-N-(2,2-dimethylpropyl)-N-(2-{[2-(4-hydroxy-2-oxo-2,3-dihydro-1,3-benzothiazol-7-yl)ethyl]amino}ethyl)-β-alaninamide bis-trifluoroacetic acid salt] were 794 nM, 63.1 nM and 0.42.
For the compound `O=C(CCNCCc1ccccc1)N(CCNCCc1ccc(O)c2[nH]c(=O)sc12)C1Cc2ccccc2C1` [Example 41, N^1-(2,3-Dihydro-1H-inden-2-yl)-N^1-(2-{[2-(4-hydroxy-2-oxo-2,3-dihydro-1,3-benzothiazol-7-yl)ethyl]amino}ethyl)-N^3-(2-phenylethyl)-β-alaninamide bis-trifluoroacetic acid salt], the IC50 in experiment [1] was 12.6 nM. Besides, on Adrenergic β2, the EC50 was 31.6 nM and the “β2 Int Act” value came to 0.99.
Taken in the same sequence, the figures for `O=C(CCNCCc1cccc(Cl)c1)N(CCNCCc1ccc(O)c2[nH]c(=O)sc12)C1Cc2ccccc2C1` [Example 42, N^3-[2-(3-Chlorophenyl)ethyl]-N^1-(2,3-dihydro-1H-inden-2-yl)-N^1-(2-{[2-(4-hydroxy-2-oxo-2,3-dihydro-1,3-benzothiazol-7-yl)ethyl]amino}ethyl)-β-alaninamide bis-trifluoroacetic acid salt] were 63.1 nM, 15.8 nM and 0.82.
For `COc1cccc(CCNCCC(=O)N(CCNCCc2ccc(O)c3[nH]c(=O)sc23)CC(C)(C)C)c1` [Example 43, N^1-(2,2-Dimethylpropyl)-N^1-(2-{[2-(4-hydroxy-2-oxo-2,3-dihydro-1,3-benzothiazol-7-yl)ethyl]amino}ethyl)-N^3-[2-(3-methoxyphenyl)ethyl]-β-alaninamide bis-trifluoroacetic acid salt], in that order: 158 nM, 10 nM and 0.67.
